What was measured:
pregnant female rats = settings: cited from earlier work
female albino rats [1] = test: Anti-implantation studies of roxatidine acetate in female rats (post coital); type: in vivo, rat
Method: Roxatidine was screened as a post coital anti-fertility agent on different days of pregnancy i.e. day 1st, days 1st-3rd day 4th i.e. day of ([…] days 1st-5th, days 1st-7th and day 15th-20th i.e. period of organogenesis) post coitum. The aim of the study was to determine the minimum possible dose of drug showing anti implantation activity and the specific days of gestation period when the activity is maximum studies were carried out in order to determine the possible mechanism of action of the drug. Further ELISA was conducted to assess the effects of roxatidine on the serum level of estrogen and progesterone respectively.
Daily vaginal smears of the female albino rats were taken and the regular periodicity of the estrus cycle was checked.
The animals were held, ventral side up and a drop of 0.9% saline was inserted into the vagina with the help of a Pasteur pipette, carefully, without damaging the vaginal wall to avoid false positive smears. The drop of normal saline was aspirated and replaced several times with the vaginal fluid, withdrawn and transferred to a microscopic slide. A coverslip was placed carefully on the smear avoiding the air bubble. The slide was then observed under a compound microscope (magnification-45×) and the stage of estrus cycle was determined.
Female rats in proestrus or estrus stage were housed with mature male rats (in the ratio 3 females:1 male). Each female was examined for the presence of spermatozoa in the early morning. The day on which this sign of mating is seen is taken as day 1 of pregnancy. The female was then separated and caged singly. Roxatidine was administered orally to the animal once daily on specific days of pregnancy at different concentrations.
Pregnant rats were divided into 5 groups of 10 animals each. To group I, which served as control, a constant volume of distilled water was administered orally with the help of a catheter. The drug namely, roxatidine was administered at doses of 2.5, 10, 15 & 20 mg/kg body weight orally, on specific days of pregnancy.
Fifty albino rats were divided into groups of 10 animals each. Group I served as control and received distilled water. Group II to V received Roxatidine acetate at doses of 2.5,10,15 & 20 mg/kg body weight, orally respectively on day 1 postcoital with the help of a catheter.
On day 10 of pregnancy the animal was laprotomized and the number of implants present in both the uterine horns as well as the number of corpora lutea on each ovary was counted. The animals were allowed to complete the gestation period (usually 21-23 days) and the number of litters delivered, if any were counted In this case, 2 litters were delivered.
Fifty albino rats were divided into groups of 10 animals each. Group I served as control and received distilled water. Group II to V received Roxatidine acetate at doses of 2.5,10,15 & 20 mg/kg body weight, orally respectively on day 1-3 postcoital with the help of a catheter.
On day 10 of pregnancy the animal was laprotomized and the number of implants present in both the uterine horns as well as the number of corpora lutea on each ovary was counted.
Fifty albino rats were divided into groups of 10 animals each. Group I served as control and received distilled water. Group II to V received Roxatidine acetate at doses of 2.5,10,15 & 20 mg/kg body weight, orally respectively on day 4 postcoital with the help of a catheter.
On day 10 of pregnancy the animal was laprotomized and the number of implants present in both the uterine horns as well as the number of corpora lutea on each ovary was counted. The animals were allowed to complete the gestation period (usually 21-23 days) at the end of which 3 litters were found.
Fifty albino rats were divided into groups of 10 animals each. Group I served as control and received distilled water. Group II to V received Roxatidine acetate at doses of 2.5, 10, 15 & 20 mg/kg body weight, orally respectively on day 1-7 postcoital with the help of a catheter. […]

female albino rats [2] = test: Preovulatory effects of roxatidine acetate in female albino rats; type: in vivo, rat; settings: 2.5, 10, 15 & 20 mg/kg for 15 consecutive days before mating; dose group not stated
Method: Animals with normal estrus cycle were divided into […] with 10 animals in each group. Group I served as control and received distilled water orally. Animals in Group II, II, IV & V were administered roxatidine acetate at the doses of 2.5, 10, 15, & 20 mg/kg body weight respectively, for 15 consecutive days. During this period daily vaginal smears were taken to observe the regularity of the estrus cycle.
The females in all the groups were then paired with males of proven fertility. Daily vaginal smears were taken until the animals successfully mated. This was indicated by the presence of spermatozoa in the vaginal smears and this was taken as day 1 of pregnancy. On day 10 each animal was laprotomized and the no. of implants/resorption sites and the no. of corpora lutea were counted. The number of litters delivered at the end of the gestation period were 2.

[3] = Solubility in water (preparation of drug solution); type: physicochemical; settings: distilled water

Row | solubility in water [3] | SMILES | anti-implantation effects (pregnant female rats; oral, daily for 1-7 days post coitum, pregnant female rats) | oestrogenic/anti-oestrogenic activity (pregnant female rats; rats) | number of litters found at end of gestation period (female albino rats [1]; 2.5, 10, 15 & 20 mg/kg orally on day 1-3 postcoital, gestation 21-23 days) | number of litters found at end of gestation period (female albino rats [1]; 2.5, 10, 15 & 20 mg/kg orally on day 1-5 postcoital, gestation 21-23 days) | number of litters found at end of gestation period (female albino rats [1]; 2.5, 10, 15 & 20 mg/kg orally on day 1-7 postcoital, gestation 21-23 days) | number of litters delivered at end of gestation period (female albino rats [1]; 2.5, 10, 15 & 20 mg/kg orally on day 1 postcoital, gestation 21-23 days, dose group not stated) | number of litters found at end of gestation period (female albino rats [1]; 2.5, 10, 15 & 20 mg/kg orally on day 4 postcoital, gestation 21-23 days, dose group not stated) | number of litters seen at end of gestation period (female albino rats [1]; 2.5, 10, 15 & 20 mg/kg orally on day 15-20 postcoital, gestation 21-23 days, dose group not stated) | inhibition of implantation (female albino rats [1]; administered in animal models) | number of litters delivered at the end of the gestation period (female albino rats [2])
1 |  | CN/C(=N/CCSCc1nc[nH]c1C)NC#N [cimetidine] | exhibited anti-implantation effects | did not possess oestrogenic/anti-oestrogenic activity |  |  |  |  |  |  |  | 
2 | readily and completely soluble in water | CC(=O)OCC(=O)NCCCOc1cccc(CN2CCCCC2)c1 [Roxatidine acetate] |  |  | no litters were found | no litters were found | no litters were found | 2 | 3 | 2 | effective in inhibiting implantation | 2

Source: US20030212105A1, “Novel anti-fertility agent” (priority 2002, published 2003)
